Laboratory results from patent publication US20260009799A1, “CA-IX TARGETING FLUORESCENT PROBES” (BRACCO IMAGING S.P.A., priority 2022, published 2026).

Assays:
[1] = biological target: T1, CA-IX expressing HT-29 cells (Homo sapiens, UniProt Q16790); assay: Cellular binding assessment by flow cytometry; details: for Kd: HT-29 cells, 1 hour 30 min on ice, flow cytometry, read-out: CA-IX receptor affinity (KD, nM to HT-29 cells); for KD to HT-29 cells, fold lower than corresponding Reference compound: compound 1 vs Reference 2, compound 2 vs Reference 3; for KD to HT-29 cells compared with Reference 1 (HF-1): versus Reference 1 (HF-1)
T1 construct: CA-IX, expressed in its physiological environment at the cell-surface; host or cells: HT-29 human colorectal adenocarcinoma cells
Protocol: Human colon adenocarcinoma HT-29 cells (ATCC) used for the cellular binding experiments were cultured in McCoy's 5A medium (Sigma-Aldrich), supplemented with 10% HyClone Fetal Clone III (Euroclone), 2 mM L-glutamine (Sigma-Aldrich), 100 IU/mL penicillin, 0.1 mg/mL streptomycin, 0.25 μg/mL amphotericin B (Antibiotic-Antimycotic solution, Life Technologies) and cells were grown at 37° C. in humidified atmosphere enriched with 5% CO2. DPBS without MgCl2 and CaCl2) (Sigma-Aldrich) was used for cell rinsing.
Indeed, by using the anti-human CA-IX antibody MAB2188 (R&D Systems) and the DAKO […], according to the instruction of the datasheet, HT-29 cells were estimated to express about 150,000 CA-IX molecules per cell. Thus, HT-29 cells were used to measure the binding of all compounds to CA-IX, expressed in its physiological environment at the cell-surface. Briefly, HT-29 cells were detached with StemPro® Accutase® Cell Dissociation Reagent (Life Technologies), collected in DPBS and counted. At least 2·10^5 HT-29 cells were placed in 1.5 mL tubes on ice and resuspended in 50-100 μL of cold FACS buffer (eBioscience™ Flow Cytometry Staining Buffer, Invitrogen) containing scalar concentrations of compounds (HF-1, reference 2, and compound 1: range 0-20 μM; reference 3: range 0-24 μM; compound 2: range 0-10 μM). After incubation (1 hour and 30 min on ice in the dark), cells were rinsed 3 times in 300 μL of cold FACS buffer by centrifugation (5 min, 4° C., 350 RCF), discarding the supernatant. Cell pellets were then resuspended in 200 μL of cold FACS buffer (or in an adequate volume in order to obtain no more than 1000 recorded events per μL during FACS analysis) and analyzed with the flow cytometer Accuri™ C6 (BD Biosciences). The mean cell-associated fluorescence was plotted against concentration and the dissociation constant at equilibrium (KD) was inferred by mathematical fitting with GraphPad Prism v.9 software, according to the following equation: […]
where Bmax is the maximum specific binding in the same units as Y; KD is the equilibrium dissociation constant, in the same units as X; NS is the slope of nonspecific binding in Y units divided by X units; and background is the amount of nonspecific binding with no added Compound.
All compounds were analyzed in at least three independent experiments.

[2] = biological target: T2, human serum albumin (HSA) (Homo sapiens, UniProt P02768); assay: Binding to albumin (ultrafiltration, absorbance of filtrates); format: in vitro ADME; details: 4.76 μM probe in PBS, 10 KDa cut off ultrafiltration, 25° C.; read-out: HSA affinity (KA, M^−1) (converted)
T2 construct: purchased Sigma-Aldrich A9511
T2 sequence (P02768 25-609): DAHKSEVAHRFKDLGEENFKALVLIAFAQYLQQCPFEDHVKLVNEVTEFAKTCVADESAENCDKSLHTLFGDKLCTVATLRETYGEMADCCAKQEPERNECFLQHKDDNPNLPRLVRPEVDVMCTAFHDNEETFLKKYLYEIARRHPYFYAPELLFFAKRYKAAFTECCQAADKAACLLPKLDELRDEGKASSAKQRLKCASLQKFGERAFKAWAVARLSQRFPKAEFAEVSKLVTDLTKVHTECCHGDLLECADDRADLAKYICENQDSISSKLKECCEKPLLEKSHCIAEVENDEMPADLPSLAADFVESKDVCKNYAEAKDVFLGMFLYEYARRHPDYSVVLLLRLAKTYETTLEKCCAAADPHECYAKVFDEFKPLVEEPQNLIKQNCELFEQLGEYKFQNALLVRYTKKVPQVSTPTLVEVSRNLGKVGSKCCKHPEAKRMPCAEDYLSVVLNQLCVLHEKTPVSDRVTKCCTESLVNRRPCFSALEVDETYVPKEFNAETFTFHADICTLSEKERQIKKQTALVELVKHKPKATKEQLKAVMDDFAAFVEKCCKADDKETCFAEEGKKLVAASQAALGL
Protocol: The affinity of the probes for human serum albumin (HSA) was determined to assess the influence of structural features on their albumin binding properties. Briefly, HSA (A9511, Sigma-Aldrich) was prepared in a […] stock solution in PBS and used to obtain a series of dilutions in PBS (0, 9.52·10^−7, 4.76·10^−6, 9.52·10^−6, 1.90·10^−5, 3.81·10^−5, 5.71·10^−5, 9.52·10^−5, 1.43·10^−4, 1.90·10^−4, 2.86·10^−4, 3.81·10^−4 M), in presence of 4.76 μM of the CA-IX-targeting probe (prepared from a 50 μM stock solution in PBS), in a total volume of 0.525 mL. The samples were centrifuged (10000 g for 30 min at 25° C.) in a Microcon device (10 KDa MW cut off, Amicon Ultra-0.5 Centrifugal Filter Unit with Ultracel-10 membrane) and the absorbance measurements of the filtrates were obtained with the spectrophotometer at the maximum absorbance wavelength of the fluorophore.
Data analysis was performed by fitting the raw data, using Microsoft Excel Solver, with the equation:
where ΔA/b=Absorbance measured (b=1 cm), KRL=KA calculated by fitting, Δε·Rt are calculated by fitting, and [L]=HSA concentration. ΔA/b values were experimentally obtained by subtracting the absorbance of “0 HSA sample” to the absorbance of each other sample.

[3] = biological target: T3, CA-IX on HT-29 cells (Homo sapiens, UniProt Q16790); assay: Cellular specificity: binding to HT-29 cells in competition with MSC8 antibody; format: cell-based; details: compound 1 0.125 μM, MSC8 0.0125/0.125/1.25/2.5 μM, on ice
T3 construct: CA-IX, expressed in its physiological environment at the cell-surface; host or cells: HT-29 human colorectal adenocarcinoma cells
Protocol: HT-29 cells were co-incubated, on ice in suspension, with compound 1, at the established concentration of 0.125 μM, and different concentrations of MSC8 (0.1×, 1×, 10× and 20× with respect to compound 1, i.e. 0.0125/0.125/1.25/2.5 μM); in addition, HT-29 cells were incubated with either compound 1 alone, or each concentration of MSC8 alone as well. The resulting binding of both compound 1 and MSC8 was then recorded as cell-associated fluorescence intensity, using for MSC8 a secondary antibody labelled with Alexa Fluor™ 488 (ThermoFischer), and compared to the one resulting from both compounds alone, taken as 100%.

| SMILES | Kd [1] [nM] | KD to HT-29 cells, fold lower than corresponding Reference compound [1] | KD to HT-29 cells compared with Reference 1 (HF-1) [1] | Kd [2] [µM] | binding of compound 1 to HT-29 cells in presence of MSC8 [3] |
| --- | --- | --- | --- | --- | --- |
| CC1(C)C(/C=C/C2=C(Oc3ccc(S(=O)(=O)O)cc3)C(=C/C=C3/N(CCCCCC(=O)NCCCCCCCC(=O)Nc4nnc(S(N)(=O)=O)s4)c4ccc(C(=O)NC[C@H](O)[C@@H](O)[C@H](O)[C@H](O)CO)cc4C3(C)C)/CCC2)=[N+](CCCCS(=O)(=O)[O-])c2ccc(C(=O)NC[C@H](O)[C@@H](O)[C@H](O)[C@H](O)CO)cc21 [Compound 1] | 174 ± 15 | 2 fold | rather comparable | 80 | reduced in a dose-dependent manner |
| CC(CC[N+]1=C(/C=C/C=C/C=C/C=C2/N(CCCCCC(=O)NCCCCCCCC(=O)Nc3nnc(S(N)(=O)=O)s3)c3ccc(C(=O)NC[C@H](O)[C@@H](O)[C@H](O)[C@H](O)CO)cc3C2(C)C)C(C)(C)c2cc(C(=O)NC[C@H](O)[C@@H](O)[C@H](O)[C@H](O)CO)ccc21)S(=O)(=O)[O-] (stereo partly drawn) [Compound 2] | 58 ± 9 | more than 4 fold | 2 fold | 105 |  |
